Legend:
in vitro = details: human, microsomes, pH 7.4
human Notch 3 = human Notch 3 (Homo sapiens, UniProt Q9UM47); experiment: Notch-CBF1 Transactivation Assay (Notch 3); assay type: cell-based; details: HeLa cells co-transfected with truncated Notch 3 and CBF1 luciferase reporter; 18 hours incubation
Excerpt: Notch-CBF1 Transactivation Assay
The Notch-CBF1 (C-promoter binding factor I) cell based transactivation assay is based on the ability of the released Notch intracellular domain fragments (NICDs) to function as transcription factors in conjunction with CBF1 and other nuclear factors. Luciferase assays were used to measure the antagonism of Notch-CBF1 transcriptional activity. HeLa cervical cancer cells are transiently co-transfected with pCDNA3.1/Hygro plasmids containing truncated Notch 1, Notch 2, Notch 3, or Notch 4 receptors and a PGL3 luciferase reporter vector containing 4 copies of CBF1 binding site. The cells were then tested for Notch-CBF1 activity in the absence or presence of test compounds. HeLa cells, maintained in DMEM (high glucose with HEPES), 1× glutamine/penicillin/streptomycin and 10% Fetal Bovine serum, were transiently transfected in a T175 Flask (4.5×10^6 cells/flask) using the Monster Transfection Kit (Minis #MIR2906) according to manufacturers specifications. Table 9 denotes respective DNA quantity for the transfections.
Assay media (5 μL) containing test compounds in final concentrations ranging from 5 μM to 8.4×10^−5 μM (3 fold serial dilutions) were added to the cells and the cell plates were then incubated for 18 hours at 37° C. and 5% CO2. Control wells contained DMSO vehicle (total counts) or 0.5 μM of an in-house small molecule inhibitor (background counts). Duplicates were used for each sample. Luciferase activity was measured after a 20-minute incubation with 50 μl STEADY-GLO® luciferase reagents according to manufacturer's specifications (Promega, Cat. #E2550) and analyzed by Envision plate reader (PerkinElmer, Boston, Mass.).
The antagonist effect of compounds was expressed as 100×[1−(average sample-average background)/(average total−average background)] where sample is the luciferase activity in the presence of test compound, background is equal to the luciferase activity in the presence of the small molecule inhibitor control and the total is signal induced in DMSO wells.

Chain of human Notch 3 (Q9UM47 40-2321 limits assumed): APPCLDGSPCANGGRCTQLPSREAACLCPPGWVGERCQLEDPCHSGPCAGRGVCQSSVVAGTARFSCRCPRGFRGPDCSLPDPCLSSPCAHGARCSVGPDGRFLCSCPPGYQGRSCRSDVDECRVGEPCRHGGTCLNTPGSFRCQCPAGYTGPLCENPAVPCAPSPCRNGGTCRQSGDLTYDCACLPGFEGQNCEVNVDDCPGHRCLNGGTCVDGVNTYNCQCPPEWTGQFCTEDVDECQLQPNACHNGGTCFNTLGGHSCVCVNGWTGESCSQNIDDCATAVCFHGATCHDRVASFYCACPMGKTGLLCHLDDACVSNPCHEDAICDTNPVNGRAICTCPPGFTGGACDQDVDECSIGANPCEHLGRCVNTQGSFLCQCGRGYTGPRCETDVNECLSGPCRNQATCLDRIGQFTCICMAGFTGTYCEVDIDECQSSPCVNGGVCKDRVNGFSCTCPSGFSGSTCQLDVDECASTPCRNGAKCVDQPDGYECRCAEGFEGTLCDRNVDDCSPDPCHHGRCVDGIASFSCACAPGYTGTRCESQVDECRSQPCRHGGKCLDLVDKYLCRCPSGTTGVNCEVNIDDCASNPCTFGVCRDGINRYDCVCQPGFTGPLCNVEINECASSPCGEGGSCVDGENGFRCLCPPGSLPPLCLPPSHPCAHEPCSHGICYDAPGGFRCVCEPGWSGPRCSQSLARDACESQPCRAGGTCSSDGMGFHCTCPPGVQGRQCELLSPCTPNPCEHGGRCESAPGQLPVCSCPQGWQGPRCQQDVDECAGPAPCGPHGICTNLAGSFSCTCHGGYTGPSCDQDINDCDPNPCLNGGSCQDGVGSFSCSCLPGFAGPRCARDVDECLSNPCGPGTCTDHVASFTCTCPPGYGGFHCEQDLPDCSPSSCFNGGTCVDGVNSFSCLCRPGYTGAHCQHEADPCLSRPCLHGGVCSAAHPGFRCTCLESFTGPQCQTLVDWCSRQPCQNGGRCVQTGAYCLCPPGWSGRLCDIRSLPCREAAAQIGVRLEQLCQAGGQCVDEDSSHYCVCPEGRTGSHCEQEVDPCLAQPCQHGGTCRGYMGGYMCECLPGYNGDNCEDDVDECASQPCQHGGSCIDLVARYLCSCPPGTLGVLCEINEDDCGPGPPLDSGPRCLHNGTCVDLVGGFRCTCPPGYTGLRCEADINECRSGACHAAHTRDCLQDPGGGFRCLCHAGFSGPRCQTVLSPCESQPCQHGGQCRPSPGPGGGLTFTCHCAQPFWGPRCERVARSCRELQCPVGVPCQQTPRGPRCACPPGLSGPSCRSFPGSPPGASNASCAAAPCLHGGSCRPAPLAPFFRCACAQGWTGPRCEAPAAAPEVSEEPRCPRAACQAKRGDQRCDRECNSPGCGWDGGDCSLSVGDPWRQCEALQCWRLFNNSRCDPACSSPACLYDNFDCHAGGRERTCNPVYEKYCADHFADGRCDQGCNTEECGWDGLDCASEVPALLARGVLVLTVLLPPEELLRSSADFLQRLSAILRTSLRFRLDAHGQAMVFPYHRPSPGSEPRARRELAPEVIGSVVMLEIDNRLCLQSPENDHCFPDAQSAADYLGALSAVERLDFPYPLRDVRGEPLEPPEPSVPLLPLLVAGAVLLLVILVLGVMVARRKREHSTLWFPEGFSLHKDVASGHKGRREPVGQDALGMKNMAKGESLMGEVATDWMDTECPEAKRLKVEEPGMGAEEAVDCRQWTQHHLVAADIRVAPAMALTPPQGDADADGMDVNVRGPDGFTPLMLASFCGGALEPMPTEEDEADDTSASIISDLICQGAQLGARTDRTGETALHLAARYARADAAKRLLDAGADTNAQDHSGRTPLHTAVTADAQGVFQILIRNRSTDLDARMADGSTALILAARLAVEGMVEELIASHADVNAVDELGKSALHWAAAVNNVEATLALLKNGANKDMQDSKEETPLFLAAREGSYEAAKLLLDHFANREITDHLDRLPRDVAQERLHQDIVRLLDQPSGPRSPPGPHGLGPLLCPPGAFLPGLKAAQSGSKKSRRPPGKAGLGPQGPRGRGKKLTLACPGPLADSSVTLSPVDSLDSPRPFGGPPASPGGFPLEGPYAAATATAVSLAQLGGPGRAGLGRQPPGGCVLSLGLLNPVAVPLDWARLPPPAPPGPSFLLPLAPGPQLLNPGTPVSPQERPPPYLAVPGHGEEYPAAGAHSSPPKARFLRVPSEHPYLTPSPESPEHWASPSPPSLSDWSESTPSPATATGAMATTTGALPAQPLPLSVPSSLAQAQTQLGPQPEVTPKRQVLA

Row | Compound | half-life (in vitro) [min] | IC50 (human Notch 3) [nM]
1 | CCC[C@H](C(N)=O)[C@@H](CC(C)C)C(=O)N[C@H]1N=C(c2ccccc2)c2ccccc2N(C)C1=O [Comparative Compound 45, reference compound] | 8 | 
2 | C=CC[C@H](C(N)=O)[C@@H](CC(C)C)C(=O)N[C@H]1N=C(c2ccccc2)c2cc(Cl)ccc2N(C)C1=O [Comparative Compound 46, reference compound] | 6 | 
3 | CCCC[C@H](C(N)=O)[C@@H](CC(C)C)C(=O)N[C@H]1N=C(c2ccc(Cl)cc2)c2ccccc2N(C)C1=O [Comparative Compound 47, reference compound] | 6 | 
4 | C=CC[C@H](C(N)=O)[C@@H](CC(C)C)C(=O)N[C@H]1N=C(c2ccccc2)c2ccccc2N(CCC)C1=O [Comparative Compound 48, reference compound] | 3 | 
5 | CCc1cccc2c1NC(=O)[C@@H](NC(=O)[C@H](CCC(F)(F)F)[C@H](CCC(F)(F)F)C(N)=O)N=C2c1cccc(Cl)c1 [Example 2, (2R,3S)—N-((3S)-5-(3-Chlorophenyl)-9-ethyl-2-oxo-2,3-dihydro-1H-1,4-benzodiazepin-3-yl)-2,3-bis(3,3,3-trifluoropropyl)succinamide] | 32 | 4.3
6 | Cc1ccc(C2=N[C@H](NC(=O)[C@H](CCC(F)(F)F)[C@H](CCCC(F)(F)F)C(N)=O)C(=O)Nc3c(Cl)cccc32)cc1C [Example 4, (2R,3S)—N-(9-Chloro-5-(3,4-dimethylphenyl)-2-oxo-2,3-dihydro-1H-1,4-benzodiazepin-3-yl)-3-(4,4,4-trifluorobutyl)-2-(3,3,3-trifluoropropyl)succinamide] | 31 | 7.3
7 | Cc1cc(C)cc(C2=N[C@H](NC(=O)[C@H](CCC(F)(F)F)[C@H](CCCC(F)(F)F)C(N)=O)C(=O)Nc3c(Cl)cccc32)c1 [Example 5, (2R,3S)—N-(9-Chloro-5-(3,5-dimethylphenyl)-2-oxo-2,3-dihydro-1H-1,4-benzodiazepin-3-yl)-3-(4,4,4-trifluorobutyl)-2-(3,3,3-trifluoropropyl)succinamide] | 33 | 4
8 | CCc1cccc2c1NC(=O)[C@@H](NC(=O)[C@H](CCC(F)(F)F)[C@H](CCC(F)(F)F)C(N)=O)N=C2c1cccc(C)c1 [Example 6, (2R,3S)—N-((3S)-9-Ethyl-5-(3-methylphenyl)-2-oxo-2,3-dihydro-1H-1,4-benzodiazepin-3-yl)-2,3-bis(3,3,3-trifluoropropyl)succinamide] | 33 | 4.5
9 | Cc1cccc2c1NC(=O)[C@@H](NC(=O)[C@H](CCC(F)(F)F)[C@H](CCC(F)(F)F)C(N)=O)N=C2c1cccc(Cl)c1 [Example 7, (2R,3S)—N-((3S)-5-(3-Chlorophenyl)-9-methyl-2-oxo-2,3-dihydro-1H-1,4-benzodiazepin-3-yl)-2,3-bis(3,3,3-trifluoropropyl)succinamide] | > 120 | 
10 | Cc1cccc2c1NC(=O)[C@@H](NC(=O)[C@H](CCC(F)(F)F)[C@H](CCCC(F)(F)F)C(N)=O)N=C2c1cccc(Cl)c1 [Example 8, (2R,3S)—N-((3S)-5-(3-Chlorophenyl)-9-methyl-2-oxo-2,3-dihydro-1H-1,4-benzodiazepin-3-yl)-3-(4,4,4-trifluorobutyl)-2-(3,3,3-trifluoropropyl)succinamide] | 71 | 11.6
11 | Cc1cccc(C2=N[C@H](NC(=O)[C@H](CCC(F)(F)F)[C@H](CCC(F)(F)F)C(N)=O)C(=O)Nc3c2cccc3C(F)(F)F)c1 [Example 9, (2R,3S)—N-((3S)-5-(3-Methylphenyl)-2-oxo-9-(trifluoromethyl)-2,3-dihydro-1H-1,4-benzodiazepin-3-yl)-2,3-bis(3,3,3-trifluoropropyl)succinamide] | 113 | 3.7
12 | Cc1cc(C)cc(C2=N[C@H](NC(=O)[C@H](CCC(F)(F)F)[C@H](CCC(F)(F)F)C(N)=O)C(=O)Nc3c(Cl)cccc32)c1 [Example 10, (2R,3S)—N-((3S)-9-Chloro-5-(3,5-dimethylphenyl)-2-oxo-2,3-dihydro-1H-1,4-benzodiazepin-3-yl)-2,3-bis(3,3,3-trifluoropropyl)succinamide] | 54 | 5.4
13 | Cc1cccc(C2=N[C@H](NC(=O)[C@H](CCC(F)(F)F)[C@H](CCCC(F)(F)F)C(N)=O)C(=O)Nc3c2cccc3C(F)(F)F)c1 [Example 11, (2R,3S)—N-((3S)-5-(3-Methylphenyl)-2-oxo-9-(trifluoromethyl)-2,3-dihydro-1H-1,4-benzodiazepin-3-yl)-3-(4,4,4-trifluorobutyl)-2-(3,3,3-trifluoropropyl)succinamide] | 42 | 
14 | Cc1cccc(C2=N[C@H](NC(=O)[C@H](CCC(F)(F)F)[C@H](CCC(F)(F)F)C(N)=O)C(=O)Nc3c2cccc3C(C)C)c1 [Example 12, (2R,3S)—N-((3S)-9-Isopropyl-5-(3-methylphenyl)-2-oxo-2,3-dihydro-1H-1,4-benzodiazepin-3-yl)-2,3-bis(3,3,3-trifluoropropyl)succinamide] | 53 | 3.2
15 | CC(C)c1cccc2c1NC(=O)[C@@H](NC(=O)[C@H](CCC(F)(F)F)[C@H](CCC(F)(F)F)C(N)=O)N=C2c1ccccc1 [Example 13, (2R,3S)—N-((3S)-9-Isopropyl-2-oxo-5-phenyl-2,3-dihydro-1H-1,4-benzodiazepin-3-yl)-2,3-bis(3,3,3-trifluoropropyl)succinamide] | 48 | 
16 | Cc1cccc(C2=N[C@H](NC(=O)[C@H](CCC(F)(F)F)[C@H](CCCC(F)(F)F)C(N)=O)C(=O)Nc3c(OC4CC4)cccc32)c1 [Example 14, (2R,3S)—N-((3S)-9-(Cyclopropyloxy)-5-(3-methylphenyl)-2-oxo-2,3-dihydro-1H-1,4-benzodiazepin-3-yl)-3-(4,4,4-trifluorobutyl)-2-(3,3,3-trifluoropropyl)succinamide] | 56 | 
17 | Cc1cccc(C2=N[C@H](NC(=O)[C@H](CCC(F)(F)F)[C@H](CCC(F)(F)F)C(N)=O)C(=O)Nc3c(OC4CC4)cccc32)c1 [Example 15, (2R,3S)—N-((3S)-9-(Cyclopropyloxy)-5-(3-methylphenyl)-2-oxo-2,3-dihydro-1H-1,4-benzodiazepin-3-yl)-2,3-bis(3,3,3-trifluoropropyl)succinamide] | 101 | 
18 | NC(=O)[C@@H](CCCC(F)(F)F)[C@@H](CCC(F)(F)F)C(=O)N[C@H]1N=C(c2ccccc2)c2cccc(OC3CC3)c2NC1=O [Example 16, (2R,3S)—N-((3S)-9-(Cyclopropyloxy)-2-oxo-5-phenyl-2,3-dihydro-1H-1,4-benzodiazepin-3-yl)-3-(4,4,4-trifluorobutyl)-2-(3,3,3-trifluoropropyl)succinamide] | 108 | 3.7
19 | Cc1cccc(C2=N[C@H](NC(=O)[C@H](CCC(F)(F)F)[C@H](CCCC(F)(F)F)C(N)=O)C(=O)Nc3c(Cl)cccc32)c1 [Example 17, (2R,3S)—N-((3S)-9-Chloro-5-(3-methylphenyl)-2-oxo-2,3-dihydro-1H-1,4-benzodiazepin-3-yl)-3-(4,4,4-trifluorobutyl)-2-(3,3,3-trifluoropropyl)succinamide] | 56 | 2.4
20 | COc1cccc2c1NC(=O)[C@@H](NC(=O)[C@H](CCC(F)(F)F)[C@H](CCC(F)(F)F)C(N)=O)N=C2c1cccc(C)c1 [Example 29, (2R,3S)—N-((3S)-5-(3-Methylphenyl)-9-methoxy-2-oxo-2,3-dihydro-1H-1,4-benzodiazepin-3-yl)-2,3-bis(3,3,3-trifluoropropyl)succinamide] | 98 | 
21 | NC(=O)[C@@H](CCC(F)(F)F)[C@@H](CCC(F)(F)F)C(=O)N[C@H]1N=C(c2ccc(CO)cc2)c2ccccc2NC1=O [Example 30, (2R,3S)—N-((3S)-5-(4-(Hydroxymethyl)phenyl)-2-oxo-2,3-dihydro-1H-1,4-benzodiazepin-3-yl)-2,3-bis(3,3,3-trifluoropropyl)succinamide] | 92 | 
22 | Cc1cccc(C2=N[C@H](NC(=O)[C@H](CCC(F)(F)F)[C@H](CCC(F)(F)F)C(N)=O)C(=O)Nc3ccccc32)c1 [Example 32, (2R,3S)—N-((3S)-5-(3-Methylphenyl)-2-oxo-2,3-dihydro-1H-1,4-benzodiazepin-3-yl)-2,3-bis(3,3,3-trifluoropropyl)succinamide] | 82 | 
23 | COc1cccc2c1NC(=O)[C@@H](NC(=O)[C@H](CCC(F)(F)F)[C@H](CCC(F)(F)F)C(N)=O)N=C2c1ccc(Cl)cn1 [Example 34, (2R,3S)—N-((3S)-5-(5-Chloro-2-pyridinyl)-9-methoxy-2-oxo-2,3-dihydro-1H-1,4-benzodiazepin-3-yl)-2,3-bis(3,3,3-trifluoropropyl)succinamide] | 116 | 
24 | COc1ccc(C2=N[C@H](NC(=O)[C@H](CCC(F)(F)F)[C@H](CCC(F)(F)F)C(N)=O)C(=O)Nc3ccccc32)cc1 [Example 35, (2R,3S)—N-((3S)-5-(4-Methoxyphenyl)-2-oxo-2,3-dihydro-1H-1,4-benzodiazepin-3-yl)-2,3-bis(3,3,3-trifluoropropyl)succinamide] | 118 | 

From patent US9273014B2, “Bis(fluoroalkyl)-1,4-benzodiazepinone compounds and prodrugs thereof” (Bristol-Myers Squibb Company, priority 2012, dated 2016)
